Measurements as given in ChEMBL document CHEMBL5050861 (2021).
Converted amounts (≈) assume the structure as drawn.

Experiments:
[1] = Kinetic aqueous solubility of the compound; type: physicochemical; details: buffer; read-out: Kinetic_solubility
[2] = Stability of compound in rat microsomes assessed as half-life; type: ADME, Microsome
[3] = Inhibition of recombinant mouse GALK1 using ATP as substrate incubated for 1 hr and measured by Kinase-Glo assay

## COC(=O)c1ccnc(NC(=O)C2=C(C)NC(Nc3nc4ccccc4o3)=NC2c2ccccc2Cl)c1 (stereo not given)
[1]
  solubility kinetic: < 1 µg/mL
[2]
  half-life: 18.4 min
[3]; read-out: IC50
  IC50: 5.44 µM

## CC1=C(C(=O)Nc2cccc(CCO)c2)C(c2ccccc2Cl)N=C(Nc2nc3ccccc3o2)N1 (stereo not given)
[2]
  half-life: 26.6 min

## CC1=C(C(=O)Nc2cc(C(=O)O)ccn2)C(c2ccc(-c3ccc(C(F)(F)F)cc3)cc2Cl)N=C(Nc2nc3ccc(F)cc3o2)N1 (stereo not given)
[1]
  solubility kinetic: 8.1 µg/mL (≈ 12.2 µM)
[2]
  half-life: > 30 min
[3]; read-out: IC50
  IC50: 21.7 µM

## CC1=C(C(=O)Nc2nncs2)C(c2nn(C)cc2Cl)N=C(Nc2nc3ccccc3o2)N1 (stereo not given)
[1]
  solubility kinetic: 12.8 µg/mL (≈ 27.2 µM)
[2]
  half-life: > 30 min
[3]; read-out: IC50
  IC50: 17.2 µM

## CC1=C(C(=O)NCc2cnn(C(C)(C)C)c2)C(c2ccc(C)cc2Cl)N=C(Nc2nc3ccc(F)c(N)c3o2)N1 (stereo not given)
[1]
  solubility kinetic: < 1 µg/mL
[2]
  half-life: 14.4 min
[3]; read-out: IC50
  IC50: 4.32 µM

## CC1=C(C(=O)Nc2nncs2)C(c2cccnc2Br)N=C(Nc2nc3ccccc3o2)N1 (stereo not given)
[1]
  solubility kinetic: 11.1 µg/mL (≈ 21.7 µM)
[2]
  half-life: > 30 min
[3]; read-out: IC50
  IC50: 19.3 µM

## COC(=O)Cc1nnc(NC(=O)C2=C(C)NC(Nc3nc4ccccc4o3)=NC2c2ccccc2Cl)s1 (stereo not given)
[1]
  solubility kinetic: < 1 µg/mL
[2]
  half-life: 8.09 min

## CC1=C(C(=O)Nc2cc(C(=O)O)ccn2)C(c2ccc(N3CCOCC3)cc2Cl)N=C(Nc2nc3ccc(F)cc3o2)N1 (stereo not given)
[1]
  solubility kinetic: > 89 µg/mL
[2]
  half-life: > 30 min
[3]; read-out: IC50
  IC50: 3.85 µM

## CC1=C(C(=O)Nc2nncs2)C(c2ncccc2Br)N=C(Nc2nc3ccccc3o2)N1 (stereo not given)
[1]
  solubility kinetic: 3 µg/mL (≈ 5.87 µM)
[2]
  half-life: > 30 min
[3]; read-out: IC50
  IC50: 6.85 µM

## CCn1cc(CNC(=O)C2=C(C)NC(Nc3nc4cccc(N)c4o3)=NC2c2ccc(F)cc2Cl)cn1 (stereo not given)
[2]
  half-life: 18.8 min
[3]; read-out: IC50
  IC50: 7.69 µM

## COC(=O)c1ccccc1CNC(=O)C1=C(C)NC(Nc2nc3ccccc3o2)=NC1c1ccccc1Cl (stereo not given)
[1]
  solubility kinetic: < 1 µg/mL
[2]
  half-life: 1.74 min
[3]; read-out: IC50
  IC50: 4.32 µM

## CC1=C(C(=O)NCc2cnn(C)c2)[C@H](c2ccc(C)cc2Cl)N=C(Nc2nc3cccc(N)c3o2)N1
[1]
  solubility kinetic: 17.1 µg/mL (≈ 33.9 µM)
[2]
  half-life: 18.9 min
[3]; read-out: IC50
  IC50: 1.58 µM

## CC1=C(C(=O)NCc2cnn(C)c2C)C(c2ccc(C)cc2Cl)N=C(Nc2nc3ccc(F)cc3o2)N1 (stereo not given)
[1]
  solubility kinetic: < 1 µg/mL
[2]
  half-life: 2.99 min
[3]; read-out: IC50
  IC50: 3.43 µM

## CC1=C(C(=O)NCc2cnn(C)c2)C(c2ccc(Cl)cc2Cl)N=C(Nc2nc3cccc(N)c3o2)N1 (stereo not given)
[1]
  solubility kinetic: 15.6 µg/mL (≈ 29.7 µM)
[2]
  half-life: 17.8 min
[3]; read-out: IC50
  IC50: 6.85 µM

## CC1=C(C(=O)Nc2ccccn2)C(c2ccccc2Cl)N=C(Nc2nc3ccccc3o2)N1 (stereo not given)
[1]
  solubility kinetic: < 1 µg/mL
[2]
  half-life: > 30 min
[3]; read-out: IC50
  IC50: 10.9 µM

## COc1ccc(Cl)c(C2N=C(Nc3nc4ccccc4o3)NC(C)=C2C(=O)Nc2nncs2)c1 (stereo not given)
[1]
  solubility kinetic: < 1 µg/mL
[2]
  half-life: > 30 min
[3]; read-out: IC50
  IC50: 17.2 µM

## CC1=C(C(=O)Nc2ccccc2Cl)C(c2ccccc2Cl)N=C(Nc2nc3ccccc3o2)N1 (stereo not given)
[1]
  solubility kinetic: < 1 µg/mL
[2]
  half-life: 28.7 min
[3]
  IC50: Not Active

## CC1=C(C(=O)Nc2cc(CO)ccn2)C(c2ccccc2Cl)N=C(Nc2nc3ccccc3o2)N1 (stereo not given)
[1]
  solubility kinetic: < 1 µg/mL
[2]
  half-life: > 30 min
[3]; read-out: IC50
  IC50: 9.68 µM

## CC1=C(C(=O)Nc2cc(C(N)=O)ccn2)C(c2ccccc2Cl)N=C(Nc2nc3ccccc3o2)N1 (stereo not given)
[1]
  solubility kinetic: < 1 µg/mL
[2]
  half-life: > 30 min
[3]; read-out: IC50
  IC50: 7.69 µM

## CC1=C(C(=O)Nc2nncs2)C(c2ccccc2C(F)(F)F)N=C(Nc2nc3ccccc3o2)N1 (stereo not given)
[1]
  solubility kinetic: < 1 µg/mL
[2]
  half-life: > 30 min
[3]; read-out: IC50
  IC50: 12.2 µM

## CC1=C(C(=O)Nc2nnc(-c3cccnc3)s2)C(c2ccccc2Cl)N=C(Nc2nc3cc(N)ccc3o2)N1 (stereo not given)
[1]
  solubility kinetic: 1.8 µg/mL (≈ 3.23 µM)
[2]
  half-life: > 30 min

## CC1=C(C(=O)Nc2nc(C(=O)O)cs2)C(c2ccccc2Cl)N=C(Nc2nc3ccccc3o2)N1 (stereo not given)
[3]; read-out: IC50
  IC50: 19.3 µM

## CC1=C(C(=O)Nc2ccc(C(N)=O)cn2)C(c2ccccc2Cl)N=C(Nc2nc3ccc(F)cc3o2)N1 (stereo not given)
[3]; read-out: IC50
  IC50: 6.85 µM

## COC(=O)c1cncc(NC(=O)C2=C(C)NC(Nc3nc4ccccc4o3)=NC2c2ccccc2Cl)c1 (stereo not given)
[1]
  solubility kinetic: < 1 µg/mL
[2]
  half-life: > 30 min

## CC1=C(C(=O)Nc2cc(C(=O)O)ccc2C)C(c2ccccc2Cl)N=C(Nc2nc3ccc(F)cc3o2)N1 (stereo not given)
[3]; read-out: IC50
  IC50: 17.2 µM

## CC1=C(C(=O)NCc2cn(C)cn2)C(c2ccccc2Cl)N=C(Nc2nc3ccc(F)cc3o2)N1 (stereo not given)
[3]; read-out: IC50
  IC50: 19.3 µM

## CC1=C(C(=O)Nc2ccc(-c3cn[nH]c3)cc2)C(c2ccccc2Cl)N=C(Nc2nc3ccccc3o2)N1 (stereo not given)
[3]; read-out: IC50
  IC50: 12.2 µM

## COc1ccc([C@@H]2N=C(Nc3nc4ccc(F)cc4o3)NC(C)=C2C(=O)Nc2cc(C(=O)O)ccn2)c(Cl)c1
[3]; read-out: IC50
  IC50: 1.99 µM

## CC1=C(C(=O)Nc2ccc(-n3cncn3)cc2)C(c2ccccc2Cl)N=C(Nc2nc3ccccc3o2)N1 (stereo not given)
[3]; read-out: IC50
  IC50: 34.4 µM

## COc1ccc([C@H]2N=C(Nc3nc4ccc(F)cc4o3)NC(C)=C2C(=O)Nc2cc(C(=O)O)ccn2)c(Cl)c1
[3]; read-out: IC50
  IC50: 19.3 µM

## CC1=C(C(=O)Nc2cc(C(=O)O)ccn2)C(c2ccc(C)cc2Cl)N=C(Nc2ncc(-c3ccccc3)o2)N1 (stereo not given)
[1]
  solubility kinetic: 42.2 µg/mL (≈ 77.7 µM)
[2]
  half-life: > 30 min
